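Following 48 hours of exposure in 96-well plates, responses at five concentrations were used to interpolate endpoints linearly. GI50 marks 50% less growth.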 Active and inactive are the calls of the source. Rule as the data show it: active = GI50 up to about 1.1 µM and inactive = higher.
What was measured:
Assay in all cases: inhibition of tumour cell growth, NCI panel, 48 h
786-0 = system: 786-0
A498 = system: A498
A549 = system: A549
ACHN = system: ACHN
CAKI-1 = system: CAKI-1
CCRF-CEM = system: CCRF-CEM
COLO 205 = system: COLO 205
DLD-1 = system: DLD-1
DMS-114 = system: DMS-114
DMS-273 = system: DMS-273
EKVX = system: EKVX
HCC 2998 = system: HCC 2998
HCT-15 = system: HCT-15
HL-60 = system: HL-60
HOP-62 = system: HOP-62
HOP-92 = system: HOP-92
HT-29 = system: HT-29
IGROV-1 = system: IGROV-1
K562 = system: K562
KM-20L2 = system: KM-20L2
KM12 = system: KM12
LOX IMVI = system: LOX IMVI
LXFL 529 = system: LXFL 529
M14 = system: M14
M19-MEL = system: M19-MEL
MOLT-4 = system: MOLT-4
Malme-3M = system: Malme-3M
NCI-H226 = system: NCI-H226
NCI-H23 = system: NCI-H23
NCI-H460 = system: NCI-H460
NCI-H522 = system: NCI-H522
OVCAR-3 = system: OVCAR-3
OVCAR-4 = system: OVCAR-4
OVCAR-5 = system: OVCAR-5
OVCAR-8 = system: OVCAR-8
RPMI-8226 = system: RPMI-8226
RXF 393 = system: RXF 393
SF-268 = system: SF-268
SF-295 = system: SF-295
SF-539 = system: SF-539
SK-MEL-28 = system: SK-MEL-28
SK-MEL-2 = system: SK-MEL-2
SK-MEL-5 = system: SK-MEL-5
SK-OV-3 = system: SK-OV-3
SN12C = system: SN12C
SNB-19 = system: SNB-19
SNB-75 = system: SNB-75
SNB-78 = system: SNB-78
SW-620 = system: SW-620
TK-10 = system: TK-10
UACC-257 = system: UACC-257
UACC-62 = system: UACC-62
UO-31 = system: UO-31
XF498 = system: XF498

ClC(Cl)=C(Cl)C1(Cl)CC1COCc1ccccc1 (centres undefined)
GI50 (786-0): 44.3 µM (inactive) | GI50 (A498): 52.4 µM (inactive) | GI50 (A549): 26.1 µM (inactive) | GI50 (ACHN): 39.4 µM (inactive) | GI50 (CAKI-1): 65.8 µM (inactive) | GI50 (CCRF-CEM): 22.3 µM (inactive) | GI50 (COLO 205): 25.2 µM (inactive) | GI50 (DLD-1): 38 µM (inactive) | GI50 (DMS-114): 20.7 µM (inactive) | GI50 (DMS-273): 42.8 µM (inactive) | GI50 (EKVX): 26.1 µM (inactive) | GI50 (HCC 2998): 31.6 µM (inactive) | GI50 (HCT-15): 33.3 µM | GI50 (HL-60): 15.6 µM (inactive) | GI50 (HOP-62): 25.9 µM (inactive) | GI50 (HOP-92): 15.3 µM (inactive) | GI50 (HT-29): 24.8 µM (inactive) | GI50 (IGROV-1): 47.6 µM (inactive) | GI50 (K562): 30.2 µM (inactive) | GI50 (KM-20L2): 33.3 µM (inactive) | GI50 (KM12): 35 µM (inactive) | GI50 (LOX IMVI): 23.1 µM (inactive) | GI50 (LXFL 529): 51.6 µM (inactive) | GI50 (M14): 32.4 µM (inactive) | GI50 (M19-MEL): 31.4 µM (inactive) | GI50 (MOLT-4): 20.9 µM (inactive) | GI50 (Malme-3M): 18.4 µM (inactive) | GI50 (NCI-H226): 22.4 µM (inactive) | GI50 (NCI-H23): 25.2 µM (inactive) | GI50 (NCI-H460): 38.5 µM (inactive) | GI50 (NCI-H522): 16.5 µM (inactive) | GI50 (OVCAR-3): 22.6 µM (inactive) | GI50 (OVCAR-4): 17.6 µM (inactive) | GI50 (OVCAR-5): 32.6 µM (inactive) | GI50 (OVCAR-8): 33.1 µM (inactive) | GI50 (RPMI-8226): 15.8 µM (inactive) | GI50 (RXF 393): 18.1 µM (inactive) | GI50 (SF-268): 43.3 µM (inactive) | GI50 (SF-295): 25.5 µM (inactive) | GI50 (SF-539): 51.6 µM (inactive) | GI50 (SK-MEL-28): 56.2 µM (inactive) | GI50 (SK-MEL-2): 17.8 µM (inactive) | GI50 (SK-MEL-5): 15.8 µM (inactive) | GI50 (SK-OV-3): 39.4 µM (inactive) | GI50 (SN12C): 39.8 µM (inactive) | GI50 (SNB-19): 36.9 µM (inactive) | GI50 (SNB-75): 37.2 µM (inactive) | GI50 (SNB-78): 4.83 µM (inactive) | GI50 (SW-620): 30.9 µM (inactive) | GI50 (TK-10): 60.8 µM (inactive) | GI50 (UACC-257): 26.1 µM (inactive) | GI50 (UACC-62): 22.5 µM (inactive) | GI50 (UO-31): 25.8 µM (inactive) | GI50 (XF498): 23.6 µM (inactive)
